In the supplement of paper PMC5908809:

Key:
[1] = tested on: normal NK cells expanded with K562-aAPC; experiment: percent inhibition of viability; higher = more inhibition; conditions: 72 h, IL-2 2.5 ng/mL
Procedure: (§1)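 Drug sensitivity and resistance testing on K562-aAPC-expanded normal NK cells: 5 concentrations (10-fold steps over a 10,000-fold range), 72 h at 37 °C, viability by CellTiter-Glo normalised to DMSO and benzethonium chloride controls; DSS from the fitted curve.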

DERL-7 (IL-2 2.5 ng/mL) [2] = experiment: as above; conditions: 72 h
IMC-1 (IL-2 20 ng/mL) [3] = experiment: as above; conditions: 72 h
KAI3 (IL-2 2.5 ng/mL) [4] = experiment: as above; conditions: 72 h
KHYG-1 (IL-2 2.5 ng/mL) [5] = experiment: as above; conditions: 72 h
NK-92 (IL-2 2.5 ng/mL) [6] = experiment: as above; conditions: 72 h
NK-YS (IL-2 2.5 ng/mL) [7] = experiment: as above; conditions: 72 h
NKL (IL-2 2.5 ng/mL) [8] = experiment: as above; conditions: 72 h
SNK-6 (IL-2 2.5 ng/mL) [9] = experiment: as above; conditions: 72 h
YT (IL-2 2.5 ng/mL) [10] = experiment: as above; conditions: 72 h
[11] = tested on: normal primary NK cells, pool 1 (3 donors) (IL-2 2.5 ng/mL); experiment: as above; conditions: 72 h
[12] = tested on: normal primary NK cells, pool 1 (3 donors), resting (IL-2 0 ng/mL); experiment: as above; conditions: 72 h
[13] = tested on: normal primary NK cells, pool 2 (3 donors) (IL-2 2.5 ng/mL); experiment: as above; conditions: 72 h
[14] = tested on: normal primary NK cells, pool 3 (3 donors) (IL-2 2.5 ng/mL); experiment: as above; conditions: 72 h
[15] = tested on: normal NK cells expanded with K562-aAPC; experiment: drug sensitivity score (DSS) (DSS units); higher = more sensitive; extreme values may be limits of the assay; conditions: 72 h; IL-2 2.5 ng/mL
Procedure: as §1

DERL-7 (IL-2 2.5 ng/mL) [16] = experiment: as above; conditions: 72 h
IMC-1 (IL-2 20 ng/mL) [17] = experiment: as above; conditions: 72 h
KAI3 (IL-2 2.5 ng/mL) [18] = experiment: as above; conditions: 72 h
KHYG-1 (IL-2 2.5 ng/mL) [19] = experiment: as above; conditions: 72 h
NK-92 (IL-2 2.5 ng/mL) [20] = experiment: as above; conditions: 72 h
NK-YS (IL-2 2.5 ng/mL) [21] = experiment: as above; conditions: 72 h
NKL (IL-2 2.5 ng/mL) [22] = experiment: as above; conditions: 72 h
SNK-6 (IL-2 2.5 ng/mL) [23] = experiment: as above; conditions: 72 h
YT (IL-2 2.5 ng/mL) [24] = experiment: as above; conditions: 72 h
[25] = tested on: normal primary NK cells, pool 1 (3 donors) (IL-2 2.5 ng/mL); experiment: as above; conditions: 72 h
[26] = tested on: normal primary NK cells, pool 1 (3 donors), resting (IL-2 0 ng/mL); experiment: as above; conditions: 72 h
[27] = tested on: normal primary NK cells, pool 2 (3 donors) (IL-2 2.5 ng/mL); experiment: as above; conditions: 72 h
[28] = tested on: normal primary NK cells, pool 3 (3 donors) (IL-2 2.5 ng/mL); experiment: as above; conditions: 72 h

CCN(CC)CCNC(=O)c1c(C)[nH]c(/C=C2\C(=O)Nc3ccc(F)cc32)c1C [Sunitinib] (max concentration tested 1000 nM)
percent inhibition of viability [%]
Conditions	0.1 nM	1 nM	10 nM	100 nM	1000 nM
DERL-7 (IL-2 2.5 ng/mL) [2]	-3.26	-7.9	-4.27	2.22	8.72
IMC-1 (IL-2 20 ng/mL) [3]	-2.84	-1.04	-2.36	-9.74	-11.7
KAI3 (IL-2 2.5 ng/mL) [4]	-6.44	-3.5	-1.64	-2.65	13.1
KHYG-1 (IL-2 2.5 ng/mL) [5]	-2.13	-0.89	-1.78	-2.5	-1.47
NK-92 (IL-2 2.5 ng/mL) [6]	-1.8	-5.15	-7.66	-13.8	-16.3
NK-YS (IL-2 2.5 ng/mL) [7]	-7.84	-1.57	-0.53	-5.09	20
NKL (IL-2 2.5 ng/mL) [8]	-10.3	-18.8	-13.7	-21.1	-19
SNK-6 (IL-2 2.5 ng/mL) [9]	5.7	4.75	3.71	-18.1	-44.5
YT (IL-2 2.5 ng/mL) [10]	-1.95	0.38	0.07	-2.92	-1.42
[1]	-1.15	-8.6	-7.99	-3.78	8.28
[11]	-9.12	-5.49	0.84	2.57	11.7
[12]	-1.26	-12.4	6.63	10.2	8.42
[13]	-6.76	-0.63	-6.25	-4.61	11.7
[14]	-5.22	-2.41	-6.25	-3.39	0.3

Conditions	drug sensitivity score
DERL-7 (IL-2 2.5 ng/mL) [16]	0
IMC-1 (IL-2 20 ng/mL) [17]	0
KAI3 (IL-2 2.5 ng/mL) [18]	0.06
KHYG-1 (IL-2 2.5 ng/mL) [19]	0
NK-92 (IL-2 2.5 ng/mL) [20]	0
NK-YS (IL-2 2.5 ng/mL) [21]	0.4
NKL (IL-2 2.5 ng/mL) [22]	0
SNK-6 (IL-2 2.5 ng/mL) [23]	0
YT (IL-2 2.5 ng/mL) [24]	0
[15]	0
[25]	0.13
[26]	0.08
[27]	0
[28]	0
